Legend:
Assay type in all cases: cell-based, human
GCGR-E57 = details: 72 h
Experimental: (§1) Peptides were tested in an automated image-based high-content[42] cell painting[43],[44] assay that was originally developed to explore the mechanism of action of pharmacological and genetic perturbations within cells,[45] as well as a live cell imaging assay against six patient-derived glioblastoma cell lines (GCGR-E13, GCGR-E28, GCGR-E21, GCGR-E57, GCGR-E31, and GCGR-E34), covering classical, mesenchymal, and proneural subtypes, respectively (see Methods and Figure 1B–D), along with a healthy human fetal neuronal stem cell line (GCGR-NS9FB_B).
(§2) Cell survival was quantified by nuclei counts from the Hoechst dye-stained nuclei and IC50 values calculated along with 95% confidence intervals (Figure 1B; see Table S2 for full details). […]
(§3) High Content Phenotypic Screening assays
(§4) Cell lines (glioma stem cell lines and normal foetal neural stem cells) were seeded on laminin (10 µg/mL) coated 384-well plates (Greiner Bio-One, 781091) at 1,000 cells/well and incubated overnight at 37 °C and 5% CO2. Aqueous peptide solutions (10 mM) were further diluted to 1 mM in water containing 10 % glycerol and 0.01 % TX-100. Cells were dosed using a D300 digital dispenser (Tecan) by 10-point dose response (30 µM – 1 µM) in triplicate and with aqueous glycerol/TX-100 as control. The cells were placed in an IncuCyte live cell imager (Essen BioScience) and imaged every three hours for 72 hours. Prior to fixation, the plates were removed from the IncuCyte and stained with Mitrotracker DeepRed (Invitrogen, M22426, 300 nM, 30 minutes). Cells were then fixed using 4 % formaldehyde and permeabilized with 0.1 % TX-100 in PBS. The cells were stained with ‘Cell Painting’ […]
(§5) assay reagents1: Hoechst 33342 (10 mg/mL stock, Molecular Probes, 1:5000), SYTO14 […]
(§6) BSA/PBS. The plates were imaged using an ImageXpress high content microscope (Molecular Devices). Cells were imaged with a 20× objective, covering 6 fields-of-view in each well. The data was then analyzed using a custom CellProfiler software pipeline using the University of Edinburgh high performance computing cluster. Dose response plots were calculated using HC StratomineR (corelifeanalytics.com). Nuclei count data was analyzed separately to generate cell survival metrics (normalized to aqueous glycerol/TX -100 control). […]

GCGR-E28 = details: 72 h
Experimental: as §1, §2, §3, §4, §5, §6

GCGR-NS9FB_B = details: 72 h
Experimental: as §1, §2, §3, §4, §5, §6

GCGR-E31 = details: 72 h
Experimental: as §1, §2, §3, §4, §5, §6

GCGR-E13 = details: 72 h
Experimental: as §1, §2, §3
(§7) Cell lines (glioma stem cell lines and normal foetal neural stem cells) were seeded on laminin (10 µg/mL) coated 384-well plates (Greiner Bio-One, 781091) at 1,000 cells/well and incubated overnight at 37 °C and 5% CO2. Aqueous peptide solutions (10 mM) were further diluted to 1 mM in water containing 10 % glycerol and 0.01 % TX-100. […]
(§8) The cells were placed in an IncuCyte live cell imager (Essen BioScience) and imaged every three hours for 72 hours. Prior to fixation, the plates were removed from the IncuCyte and stained with Mitrotracker DeepRed (Invitrogen, M22426, 300 nM, 30 minutes). Cells were then fixed using 4 % formaldehyde and permeabilized with 0.1 % TX-100 in PBS. The cells were stained with ‘Cell Painting’ […]
as §5, §6

GCGR-E34 = details: 72 h
Experimental: as §1, §2, §3, §7, §8, §5, §6

GCGR-E21 = details: 72 h
Experimental: as §1, §2, §3, §7, §8, §5, §6

[1] = system: mitochondria, all cell lines including GCGR-NS9FB_B; test: Mitotracker stain intensity in cell painting assay; details: compared with Peptide 15 control
Experimental: Figure S4 – Network analysis (STRING) showing protein interactions resulting from treatment with […]
2nd shell) <10. Top ranked Gene Ontology (GO terms) for biological processes is listed (top right) with Log[False Discovery Rate] indicated.
as §3, §7
BSA/PBS. […] The data was then analyzed using a custom CellProfiler software pipeline using the University of Edinburgh high performance computing cluster. Dose response plots were calculated using HC StratomineR (corelifeanalytics.com). Nuclei count data was analyzed separately to generate cell survival metrics (normalized to aqueous glycerol/TX -100 control).
Dose response curves were fitted and IC50 values calculated using Prism GraphPad (graphpad.com). […]
Figure S5 – The CellProfiler-derived feature “MedianNucleiIntensityMADIntensityW5”, reading out mitotracker stain intensity observed in cell nuclei after treatment with the Peptide 2 nullomer (blue) and Peptide 15 (control). […]

Substance H-RRRRRCQWW-NH2 [Peptide 2] has an IC50 (GCGR-E57) of 4.3 µM, an IC50 (GCGR-E28) of 5.4 µM and an IC50 (GCGR-NS9FB_B) of 7.9 µM. The IC50 (GCGR-E31) was 5.1 µM, the IC50 (GCGR-E13) was 4.4 µM and the IC50 (GCGR-E34) was 5.2 µM. The IC50 (GCGR-E21) was 4.8 µM, the “mitotracker stain intensity in cell nuclei (MedianNucleiIntensityMADIntensityW5)” value [1] was “reduce mitotracker intensity in a dose dependent manner” and the “mitotracker stain intensity in cells (MedianCellsIntensityMeanIntensityW5)” value [1] was “reduce mitotracker intensity in a dose dependent manner”.

Source: PMC11865978, “Cellular Activity of CQWW Nullomer-Derived Peptides” (ACS Omega, 2025)
